In general, Ki refers to the dissociation constant of the complex between target and ligand, obtained from inhibition or displacement. Broadly, the inhibition is the change of the read-out against control, counted positive when it falls.

For assay [1], the target named is T1, Stromelysin-1 (Homo sapiens, UniProt P08254). Briefly: In vitro inhibition of human recombinant stromelysin-1.
Target sequence in this assay (P08254 whole entry): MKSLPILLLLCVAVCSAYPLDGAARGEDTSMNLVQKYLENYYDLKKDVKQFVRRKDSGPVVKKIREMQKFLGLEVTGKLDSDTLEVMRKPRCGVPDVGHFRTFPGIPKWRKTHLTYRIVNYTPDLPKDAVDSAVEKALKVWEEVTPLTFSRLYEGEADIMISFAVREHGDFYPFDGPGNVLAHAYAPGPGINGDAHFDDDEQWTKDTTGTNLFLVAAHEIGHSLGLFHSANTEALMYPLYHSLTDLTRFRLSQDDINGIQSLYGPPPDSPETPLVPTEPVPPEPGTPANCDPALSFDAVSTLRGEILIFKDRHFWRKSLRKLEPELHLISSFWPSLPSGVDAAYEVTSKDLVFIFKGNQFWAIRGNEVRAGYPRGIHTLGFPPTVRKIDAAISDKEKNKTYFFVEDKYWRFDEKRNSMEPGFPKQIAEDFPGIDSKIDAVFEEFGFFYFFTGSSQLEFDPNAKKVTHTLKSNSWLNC
Assay [2] addresses T2, Interstitial collagenase (Homo sapiens) (UniProt P03956).
T2 sequence (whole entry): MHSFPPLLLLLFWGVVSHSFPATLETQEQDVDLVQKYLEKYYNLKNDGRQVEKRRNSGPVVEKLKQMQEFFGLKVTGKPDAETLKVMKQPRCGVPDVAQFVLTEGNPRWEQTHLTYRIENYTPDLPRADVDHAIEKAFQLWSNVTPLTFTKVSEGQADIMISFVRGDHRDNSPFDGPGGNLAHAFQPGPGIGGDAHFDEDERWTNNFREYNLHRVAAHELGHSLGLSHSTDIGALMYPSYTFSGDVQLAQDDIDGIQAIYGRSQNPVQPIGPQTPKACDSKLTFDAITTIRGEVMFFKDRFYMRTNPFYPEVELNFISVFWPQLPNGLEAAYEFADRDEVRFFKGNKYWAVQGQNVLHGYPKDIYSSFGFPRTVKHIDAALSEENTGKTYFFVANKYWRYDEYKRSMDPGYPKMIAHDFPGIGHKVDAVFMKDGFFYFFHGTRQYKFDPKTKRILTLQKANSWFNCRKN
The experiment in a line: In vitro inhibition of human fibroblast collagenase at a 10 uM.

The target of the next assay is T3, Interstitial collagenase (Homo sapiens, UniProt P03956).
T3 sequence (P03956 whole entry): T2 sequence (whole entry)
Briefly: In vitro inhibition of human fibroblast collagenase.

Assay [3] has as its target T1, Stromelysin-1. The experiment in a line: In vitro inhibition of human recombinant stromelysin-1 at a concentration of 5 uM.
Target sequence in this assay (P08254 100-477 limits assumed): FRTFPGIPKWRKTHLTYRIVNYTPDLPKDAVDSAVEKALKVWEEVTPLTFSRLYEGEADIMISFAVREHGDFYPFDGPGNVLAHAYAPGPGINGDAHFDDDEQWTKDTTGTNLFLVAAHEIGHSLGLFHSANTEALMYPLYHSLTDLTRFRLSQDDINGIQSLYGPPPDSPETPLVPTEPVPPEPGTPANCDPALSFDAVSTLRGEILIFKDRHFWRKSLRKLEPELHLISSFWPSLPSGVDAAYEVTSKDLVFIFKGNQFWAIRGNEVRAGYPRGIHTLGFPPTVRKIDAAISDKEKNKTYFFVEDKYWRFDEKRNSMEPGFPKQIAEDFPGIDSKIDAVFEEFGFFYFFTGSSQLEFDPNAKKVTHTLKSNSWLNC

With `CC(C)C[C@H](NC(=O)C(CCc1ccccc1)CP(=O)(O)CNCc1ccccc1)C(=O)Nc1ccccc1` (stereo partly specified), the Ki at Stromelysin-1 [1] came to 1900 nM. The same compound had an inhibition in assay [2] of 0%.
With `CC(=O)N1CCCC1C(=O)N[C@@H](C)C(=O)N[C@@H](C)P(=O)(O)CC(CCc1ccccc1)C(=O)N[C@@H](CC(C)C)C(=O)Nc1ccccc1` (stereo partly specified), the Ki came to 2900 nM on Interstitial collagenase and 6.1 nM on Stromelysin-1 [1].
On to `CC(C)C[C@H](NC(=O)C(CCc1ccccc1)CP(=O)(O)CNC(=O)[C@H](Cc1ccc(O)cc1)NC(=O)OCc1ccccc1)C(=O)Nc1ccccc1` (stereo partly specified), for which the Ki at Stromelysin-1 [1] was 560 nM. This compound displayed an inhibition in assay [2] of 0%.
Taken in the same sequence, the figures for `CC(=O)N1CCCC1C(=O)N[C@@H](C)C(=O)NCP(=O)(O)CC(CCc1ccccc1)C(=O)N[C@@H](CC(C)C)C(=O)Nc1ccccc1` (stereo partly specified) were 15 nM and 60%.
For the compound `CC(=O)N[C@@H](C)C(=O)N[C@@H](C)P(=O)(O)CC(CCc1ccccc1)C(=O)N[C@@H](CC(C)C)C(=O)Nc1ccccc1` (stereo partly specified), the inhibitory constant (Ki) at Stromelysin-1 [1] worked out at 340 nM. The compound further returned an inhibition in assay [2] of 0%.
For the compound `CC(C)C[C@H](NC(=O)C(CCc1ccccc1)CP(=O)(O)CNC(=O)[C@H](CC(N)=O)NC(=O)OCc1ccccc1)C(=O)Nc1ccccc1` (stereo partly specified), the Ki on Stromelysin-1 [1] was 600 nM. Also, in assay [2], the inhibition was 14%.
For the compound `CC(C)C[C@H](NC(=O)C(CCc1ccccc1)CP(=O)(O)CNC(=O)CNC(=O)OCc1ccccc1)C(=O)Nc1ccccc1` (stereo partly specified), the inhibitory constant (Ki) on Stromelysin-1 [1] came to 1400 nM. The compound further showed an inhibition in assay [2] of 4%.
As to `CC(C)C[C@H](NC(=O)C(CCc1ccccc1)CP(=O)(O)CNC(=O)[C@H](CCC(=O)O)NC(=O)OCc1ccccc1)C(=O)Nc1ccccc1` (stereo partly specified), on Stromelysin-1 [1], the inhibition constant (Ki) was 370 nM. In assay [2], this compound registered an inhibition of 12%.
For the compound `CC(C)CC(NC(=O)C(CCc1ccccc1)CP(=O)(O)CNC(=O)CN1C(=O)c2ccccc2C1=O)C(=O)Nc1ccccc1` (stereo unspecified), the inhibition constant (Ki) at Stromelysin-1 [1] was 410 nM. Further, the inhibition in assay [2] amounted to 14%.
Taken in the same sequence, the figures for `CCCC[C@H](NC(=O)OCc1ccccc1)C(=O)NCP(=O)(O)CC(CCc1ccccc1)C(=O)N[C@@H](CC(C)C)C(=O)Nc1ccccc1` (stereo partly specified) were 1300 nM and 0%.
Taken in the same sequence, the figures for `CC(C)C[C@H](NC(=O)C(CCc1ccccc1)CP(=O)(O)[C@H](C)NCc1ccccc1)C(=O)Nc1ccccc1` (stereo partly specified) were 1900 nM and 7%.
The like results for `CC(C)C[C@H](NC(=O)C(CCc1ccccc1)CP(=O)(O)CNC(=O)[C@H](Cc1ccccc1)NC(=O)OCc1ccccc1)C(=O)Nc1ccccc1` (stereo partly specified) were, in that order, 710 nM and 4%.
Turning to `CC(=O)N1CCCC1C(=O)N[C@@H](C)P(=O)(O)CC(CCc1ccccc1)C(=O)N[C@@H](CC(C)C)C(=O)Nc1ccccc1` (stereo partly specified), the inhibition at Stromelysin-1 [3] worked out at 57%; in assay [2], 0%.
On to `CC(C)C[C@H](NC(=O)C(CCc1ccccc1)CP(=O)(O)[C@H](C)NC(=O)OCc1ccccc1)C(=O)Nc1ccccc1` (stereo partly specified), for which the Ki at Interstitial collagenase turned out to be 7500 nM; at Stromelysin-1 [1], 330 nM.
As to `CC(C)C[C@H](NC(=O)C(CCc1ccccc1)CP(=O)(O)CNC(=O)[C@H](CCCCN)NC(=O)OCc1ccccc1)C(=O)Nc1ccccc1` (stereo partly specified), the Ki at Stromelysin-1 [1] turned out to be 4600 nM. The inhibition in assay [2] was found to be 18%.
The like results for `CC(C)C[C@H](NC(=O)C(CCc1ccccc1)CP(=O)(O)CNC(=O)[C@H](C)NC(=O)OCc1ccccc1)C(=O)Nc1ccccc1` (stereo partly specified) were, in that order, 280 nM and 0%.
On to `CC(=O)N[C@@H](C)C(=O)N[C@@H](C)C(=O)N[C@@H](C)P(=O)(O)CC(CCc1ccccc1)C(=O)N[C@@H](CC(C)C)C(=O)Nc1ccccc1` (stereo partly specified), for which, at Stromelysin-1 [1], the Ki is 42 nM. Also, the inhibition in assay [2] was 32%.
`CC(C)C[C@H](NC(=O)C(CCc1ccccc1)CP(=O)(O)[C@H](C)NC(=O)CN1C(=O)c2ccccc2C1=O)C(=O)Nc1ccccc1` (stereo partly specified): at Stromelysin-1 [1], the Ki was found to be 2400 nM. This compound also had an inhibition in assay [2] of 0%.
As to `CC(C)C[C@H](NC(=O)C(CCc1ccccc1)CP(=O)(O)CNC(=O)[C@H](Cc1c[nH]cn1)NC(=O)OCc1ccccc1)C(=O)Nc1ccccc1` (stereo partly specified), the Ki on Stromelysin-1 [1] worked out at 210 nM. Besides, the inhibition in assay [2] stood at 9%.
Turning to `CC(C)C[C@H](NC(=O)C(CCc1ccccc1)CP(=O)(O)CNC(=O)[C@H](C)NC(=O)C1CCCN1C(=O)c1ccccc1)C(=O)Nc1ccccc1` (stereo partly specified), the Ki on Stromelysin-1 [1] was determined as 24 nM. Also, the inhibition in assay [2] is 39%.
The like results for `CC(C)C[C@H](NC(=O)C(CCc1ccccc1)CP(=O)(O)CNC(=O)Cc1ccccc1)C(=O)Nc1ccccc1` (stereo partly specified) were, in that order, 940 nM and 0%.
Take `CC(C)C[C@H](NC(=O)C(CCc1ccccc1)CP(=O)(O)[C@H](C)NC(=O)[C@H](C)NC(=O)C1CCCN1C(=O)c1ccccc1)C(=O)Nc1ccccc1` (stereo partly specified): the Ki stood at 5100 nM at Interstitial collagenase and 20 nM at Stromelysin-1 [1].
Take `CC(C)C[C@H](NC(=O)C(CCc1ccccc1)CP(=O)(O)CNC(=O)OCc1ccccc1)C(=O)Nc1ccccc1` (stereo partly specified): the figures for the Ki on Interstitial collagenase and on Stromelysin-1 [1] were 15900 nM and 280 nM, respectively.

For the origin of these results see ChEMBL document CHEMBL1127884, “Inhibition of stromelysin-1 (MMP-3) by peptidyl phosphinic acids” (Bioorg Med Chem Lett, 1994).
